The labels stand for the following.
B1: peptide compound SEQ ID NO: 1 (peptide)
peptide: Ac-[dK]NTWQL[Tyr(Me)][2Nal][Aib]DNN-NH2
modifications: lactam 1-10
SMILES: COc1ccc(C[C@@H]2NC(=O)[C@H](CC(C)C)NC(=O)[C@H](CCC(N)=O)NC(=O)[C@H](Cc3c[nH]c4ccccc34)NC(=O)[C@H]([C@@H](C)O)NC(=O)[C@H](CC(N)=O)NC(=O)[C@H](NC(C)=O)CCCCNC(=O)C[C@@H](C(=O)N[C@@H](CC(N)=O)C(=O)N[C@@H](CC(N)=O)C(N)=O)NC(=O)C(C)(C)NC(=O)[C@H](Cc3ccc4ccccc4c3)NC2=O)cc1

Results on 15 molecules are retold here after patent US20260250322A1, “NEW PEPTIDES AS SELECTIVE IL-23 RECEPTOR INHIBITORS” (SANOFI, priority 2023, published 2026).

Numbered stars: 1 amine (or outer) side, 2 acyl side, 3 side chain; on linkers, the order of the positions; unused ones are H or OH. Bridge positions count the residues as written; N and C are the ends. Square brackets hold non-standard residues; d marks the D form. Peptide text beside a SMILES is read from it. Tyr(Me) = Yme = 4-methoxy-L-phenylalanine (O-methyl-tyrosine), COc1ccc(C[C@H](N[*:1])C(=O)[*:2])cc1; Trp(1-Me) = Cn1cc(C[C@H](N)C(=O)O)c2ccccc21; 1Nal = N[C@@H](Cc1cccc2ccccc12)C(=O)O; 2Nal = N[C@@H](Cc1ccc2ccccc2c1)C(=O)O; dOrn = NCCC[C@@H](N)C(=O)O; Orn = NCCC[C@H](N)C(=O)O; Thp = NC1(C(=O)O)CCOCC1; Aib = CC(C)(N)C(=O)O; Ahx = NCCCCCC(=O)O; Ava = NCCCCC(=O)O

The first assay has as its target T1, IL-23 receptor on the surface of HEK-Blue IL-23 cells (UniProt Q5VWK5 24-629, limits assumed).
T1 sequence (looked up): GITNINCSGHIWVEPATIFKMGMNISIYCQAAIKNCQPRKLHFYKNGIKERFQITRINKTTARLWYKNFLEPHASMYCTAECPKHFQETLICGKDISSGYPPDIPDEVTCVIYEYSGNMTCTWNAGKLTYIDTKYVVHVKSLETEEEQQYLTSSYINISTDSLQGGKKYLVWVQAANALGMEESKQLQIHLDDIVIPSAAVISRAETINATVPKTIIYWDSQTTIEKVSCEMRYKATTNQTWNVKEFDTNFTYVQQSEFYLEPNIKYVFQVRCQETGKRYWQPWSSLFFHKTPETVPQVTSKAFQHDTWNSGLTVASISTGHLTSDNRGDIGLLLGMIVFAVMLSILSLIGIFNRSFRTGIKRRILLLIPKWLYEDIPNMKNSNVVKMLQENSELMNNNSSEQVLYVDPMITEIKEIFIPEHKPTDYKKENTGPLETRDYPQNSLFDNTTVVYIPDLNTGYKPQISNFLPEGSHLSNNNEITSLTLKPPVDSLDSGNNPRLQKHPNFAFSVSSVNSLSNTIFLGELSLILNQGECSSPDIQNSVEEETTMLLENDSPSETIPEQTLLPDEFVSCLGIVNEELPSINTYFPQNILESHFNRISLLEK
In words: cell-based or functional assay.
Settings: not given
For B1, the “Inhibition of IL-23 induced pSTAT3 (IC50 nM)” value was 334 nM.

Another assay has as its target T2, human IL-23R (Homo sapiens, UniProt Q5VWK5).
T2 sequence (Q5VWK5 24-355 limits assumed): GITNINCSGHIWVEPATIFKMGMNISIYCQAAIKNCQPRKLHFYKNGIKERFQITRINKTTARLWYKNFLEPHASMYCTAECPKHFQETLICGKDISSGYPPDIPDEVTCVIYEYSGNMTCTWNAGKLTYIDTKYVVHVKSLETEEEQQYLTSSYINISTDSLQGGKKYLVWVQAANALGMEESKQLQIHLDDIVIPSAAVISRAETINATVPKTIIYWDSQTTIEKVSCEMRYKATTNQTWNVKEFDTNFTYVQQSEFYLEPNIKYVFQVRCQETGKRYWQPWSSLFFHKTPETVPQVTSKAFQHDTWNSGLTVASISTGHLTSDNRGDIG
In words: Human ELISA IL-23/IL-23R binding inhibition. The note with it: human IL-23 coated, recombinant human IL-23R-Fc chimera. As for the experimental part: Antagonism of peptide compounds for human interleukin-23 receptor inhibitors, was determined by an ELISA assay.
A 384-well plate was coated with 50 μl/well of human IL-23 at a final concentration of 1 μg/ml and incubated overnight at 4° C. The wells were washed 3 times with 80 μl wash buffer and blocked with 80 μl blocking buffer for 60 minutes at room temperature and washed again. 20 μl of serially diluted test peptides was added to each well and subsequently 20 μl of recombinant human IL-23R-Fc chimera at final concentration of 0.1 μg/ml. The plate was incubated for 60 minutes at room temperature. After the wells were washed, bound IL-23R-Fc was detected with goat anti-hu-lgG1-HRP antibody. Signals were visualized with QuantaBlu Fluorogenic Peroxidase Substrate.
(In general: An ELISA detects its analyte on a solid surface through an enzyme-linked reagent.)
As for `COc1ccc(C[C@@H]2NC(=O)[C@H](C)NC(=O)[C@H](CCC(N)=O)NC(=O)[C@H](Cc3c[nH]c4ccccc34)NC(=O)[C@H]([C@@H](C)O)NC(=O)[C@H](CC(N)=O)NC(=O)[C@H](NC(C)=O)CCCCNC(=O)C[C@@H](C(=O)N[C@@H](C)C(=O)N[C@@H](CC(N)=O)C(N)=O)NC(=O)C(C)(C)NC(=O)[C@H](Cc3ccc4ccccc4c3)NC2=O)cc1` [compound 49] (Ac-[dK]NTWQAY(Me)[2Nal][Aib]DAN-NH2; lactam 1-10), the IC50 (in general, the concentration needed to halve the response being measured) amounted to 3.13 nM.

Turning to `COc1ccc(C[C@@H]2NC(=O)[C@H](CCCNC(=N)N)NC(=O)[C@H](CCC(N)=O)NC(=O)[C@H](Cc3cn(C)c4ccccc34)NC(=O)[C@H]([C@@H](C)O)NC(=O)[C@H](CC(N)=O)NC(=O)[C@@H](NC(C)=O)CC(=O)NCCC[C@@H](C(=O)N[C@@H](CC(N)=O)C(=O)N[C@@H](CC(N)=O)C(N)=O)NC(=O)C(C)(C)NC(=O)[C@H](Cc3ccc4ccccc4c3)NC2=O)cc1` [compound 34] (Ac-DNT[Trp(1-Me)]QRY(Me)[2Nal][Aib][Orn]NN-NH2; lactam 1-10), the concentration for half-maximal inhibition (IC50) worked out at 2.16 nM.

Regarding `COc1ccc(C[C@@H]2NC(=O)[C@H](CCCNC(=N)N)NC(=O)[C@H](CCC(N)=O)NC(=O)[C@H](Cc3cn(C)c4ccccc34)NC(=O)[C@H]([C@@H](C)O)NC(=O)[C@H](CC(N)=O)NC(=O)[C@@H](NC(C)=O)CC(=O)NCCC[C@@H](C(=O)N[C@@H](CC(N)=O)C(=O)N[C@@H](CC(N)=O)C(N)=O)NC(=O)[C@H](CC(C)C)NC(=O)[C@H](Cc3ccc4ccccc4c3)NC2=O)cc1` [compound 37] (Ac-DNT[Trp(1-Me)]QRY(Me)[2Nal]L[Orn]NN-NH2; lactam 1-10), the IC50 turned out to be 3.57 nM.

Regarding `COc1ccc(C[C@@H]2NC(=O)[C@H](C)NC(=O)[C@H](CCC(N)=O)NC(=O)[C@H](Cc3c[nH]c4ccccc34)NC(=O)[C@H]([C@@H](C)O)NC(=O)[C@H](CC(N)=O)NC(=O)CCCCNC(=O)C[C@@H](C(=O)N[C@@H](CC(N)=O)C(=O)N[C@@H](CC(N)=O)C(N)=O)NC(=O)C(C)(C)NC(=O)[C@H](Cc3ccc4ccccc4c3)NC2=O)cc1` [compound 44] ([Ava]NTWQAY(Me)[2Nal][Aib]DNN-NH2; lactam N-10), the concentration for half-maximal inhibition (IC50) came to 4.66 nM.

On to `COc1ccc(C[C@@H]2NC(=O)[C@H](C)NC(=O)[C@H](CCC(N)=O)NC(=O)[C@H](Cc3c[nH]c4ccccc34)NC(=O)[C@H]([C@@H](C)O)NC(=O)[C@H](CC(N)=O)NC(=O)CCCCCNC(=O)C[C@@H](C(=O)N[C@@H](CC(N)=O)C(=O)N[C@@H](CC(N)=O)C(N)=O)NC(=O)C(C)(C)NC(=O)[C@H](Cc3ccc4ccccc4c3)NC2=O)cc1` [compound 43] ([Ahx]NTWQAY(Me)[2Nal][Aib]DNN-NH2; lactam N-10), for which the IC50 was determined as 1.44 nM.

In the case of `COc1ccc(C[C@@H]2NC(=O)[C@H](CCCNC(=N)N)NC(=O)[C@H](CCC(N)=O)NC(=O)[C@H](Cc3cn(C)c4ccccc34)NC(=O)[C@H]([C@@H](C)O)NC(=O)[C@H](CC(N)=O)NC(=O)[C@@H](NC(C)=O)CCC(=O)NCCC[C@@H](C(=O)N[C@@H](CC(N)=O)C(=O)N[C@@H](CC(N)=O)C(N)=O)NC(=O)C(C)(C)NC(=O)[C@H](Cc3ccc4ccccc4c3)NC2=O)cc1` [compound 35] (Ac-ENT[Trp(1-Me)]QRY(Me)[2Nal][Aib][Orn]NN-NH2; lactam 1-10), the concentration for half-maximal inhibition (IC50) came out at 4.55 nM.

As for `COc1ccc(C[C@@H]2NC(=O)[C@H](CCCNC(=N)N)NC(=O)[C@H](CCC(N)=O)NC(=O)[C@H](Cc3c[nH]c4ccccc34)NC(=O)[C@H]([C@@H](C)O)NC(=O)[C@H](CC(N)=O)NC(=O)[C@H](NC(C)=O)CCCNC(=O)CC[C@@H](C(=O)N[C@@H](CC(N)=O)C(=O)N[C@@H](CC(N)=O)C(N)=O)NC(=O)C(C)(C)NC(=O)[C@H](Cc3cccc4ccccc34)NC2=O)cc1` [compound 22] (Ac-[dOrn]NTWQRY(Me)[1Nal][Aib]ENN-NH2; lactam 1-10), the IC50 is 48.4 nM.

`COc1ccc(C[C@@H]2NC(=O)[C@H](CCCNC(=N)N)NC(=O)[C@H](CCC(N)=O)NC(=O)[C@H](Cc3c[nH]c4ccccc34)NC(=O)[C@H](Cc3c[nH]cn3)NC(=O)[C@H](CC(N)=O)NC(=O)[C@@H](NC(C)=O)CCCCNC(=O)C[C@@H](C(=O)N[C@@H](CC(N)=O)C(=O)N[C@@H](CC(N)=O)C(N)=O)NC(=O)C3(CCOCC3)NC(=O)[C@H](Cc3ccc4ccccc4c3)NC2=O)cc1` [compound 42] (Ac-KNHWQRY(Me)[2Nal][Thp]DNN-NH2; lactam 1-10): the IC50 came out at 18.1 nM.

With `CC(=O)N[C@H]1CC(=O)NCCC[C@@H](C(=O)N[C@@H](CC(N)=O)C(=O)N[C@@H](CC(N)=O)C(N)=O)NC(=O)C(C)(C)NC(=O)[C@H](Cc2ccc3ccccc3c2)NC(=O)[C@H](Cc2ccc(O)cc2)NC(=O)[C@H](CCCNC(=N)N)NC(=O)[C@H](CCC(N)=O)NC(=O)[C@H](Cc2cn(C)c3ccccc23)NC(=O)[C@H]([C@@H](C)O)NC(=O)[C@H](CC(N)=O)NC1=O` [compound 33] (Ac-DNT[Trp(1-Me)]QRY[2Nal][Aib][Orn]NN-NH2; lactam 1-10), the half-maximal inhibitory concentration (IC50) was 3.36 nM.

Turning to `COc1ccc(C[C@@H]2NC(=O)[C@H](CCCNC(=N)N)NC(=O)[C@H](CCC(N)=O)NC(=O)[C@H](Cc3cn(C)c4ccccc34)NC(=O)[C@H]([C@@H](C)O)NC(=O)[C@H](CC(N)=O)NC(=O)[C@@H](NC(C)=O)CC(=O)NCCC[C@@H](C(=O)N[C@@H](CC(N)=O)C(=O)N[C@@H](CC(N)=O)C(N)=O)NC(=O)C(C)(C)NC(=O)[C@H](Cc3c[nH]c4ccccc34)NC2=O)cc1` [compound 36] (Ac-DNT[Trp(1-Me)]QRY(Me)W[Aib][Orn]NN-NH2; lactam 1-10), the IC50 came out at 19.5 nM.

Consider `COc1ccc(C[C@@H]2NC(=O)[C@H](C)NC(=O)[C@H](CCC(N)=O)NC(=O)[C@H](Cc3c[nH]c4ccccc34)NC(=O)[C@H]([C@@H](C)O)NC(=O)[C@H](CCCNC(=N)N)NC(=O)[C@H](NC(C)=O)CCCCNC(=O)C[C@@H](C(=O)N[C@@H](CC(N)=O)C(=O)N[C@@H](CC(N)=O)C(N)=O)NC(=O)C(C)(C)NC(=O)[C@H](Cc3ccc4ccccc4c3)NC2=O)cc1` [compound 45] (Ac-[dK]RTWQAY(Me)[2Nal][Aib]DNN-NH2; lactam 1-10), for which the IC50 worked out at 0.96 nM.

For the molecule `COc1ccc(C[C@@H]2NC(=O)[C@H](C)NC(=O)[C@H](CCC(N)=O)NC(=O)[C@H](Cc3c[nH]c4ccccc34)NC(=O)[C@H]([C@@H](C)O)NC(=O)[C@H](CC(N)=O)NC(=O)[C@H](NC(C)=O)CCCCNC(=O)C[C@@H](C(=O)N[C@@H](CC(N)=O)C(=O)N[C@@H](C)C(N)=O)NC(=O)C(C)(C)NC(=O)[C@H](Cc3ccc4ccccc4c3)NC2=O)cc1` [compound 48] (Ac-[dK]NTWQAY(Me)[2Nal][Aib]DNA-NH2; lactam 1-10), the IC50 came to 2.06 nM.

In the case of `COc1ccc(C[C@@H]2NC(=O)[C@H](C)NC(=O)[C@H](CCC(N)=O)NC(=O)[C@H](Cc3c[nH]c4ccccc34)NC(=O)[C@H]([C@@H](C)O)NC(=O)[C@H](CC(N)=O)NC(=O)[C@H](NC(C)=O)CCCCNC(=O)C[C@@H](C(=O)N[C@@H](C)C(=O)N[C@@H](C)C(N)=O)NC(=O)C(C)(C)NC(=O)[C@H](Cc3ccc4ccccc4c3)NC2=O)cc1` [compound 50] (Ac-[dK]NTWQAY(Me)[2Nal][Aib]DAA-NH2; lactam 1-10), the IC50 amounted to 8.29 nM.

As to `COc1ccc(C[C@@H]2NC(=O)[C@H](C)NC(=O)[C@H](CCC(N)=O)NC(=O)[C@H](Cc3c[nH]c4ccccc34)NC(=O)[C@H](CCCNC(=N)N)NC(=O)[C@H](CC(N)=O)NC(=O)[C@H](NC(C)=O)CCCCNC(=O)C[C@@H](C(=O)N[C@@H](CC(N)=O)C(=O)N[C@@H](CC(N)=O)C(N)=O)NC(=O)C(C)(C)NC(=O)[C@H](Cc3ccc4ccccc4c3)NC2=O)cc1` [compound 46] (Ac-[dK]NRWQAY(Me)[2Nal][Aib]DNN-NH2; lactam 1-10), the 50% inhibitory concentration (IC50) stood at 1.38 nM.
